Where “and” joins values, the source holds several entries; their conditions need not be identical. Identical values can stand only once.
target: T1, partially purified rat brain farnesyl protein transferase (FPT) (Rattus norvegicus, UniProt Q02293+Q04631); assay: FPT IC50 in vitro enzyme assay (inhibition of Ras-CVLS farnesylation); type: biochemical; settings: inhibition of Ras-CVLS famesylation; methods of WO/10515 or WO 95/10516
T1 construct: partially purified rat brain farnesyl protein transferase (FPT); from tissue; host or cells: rat brain
T1 sequence (Q02293 whole entry, one chain of several): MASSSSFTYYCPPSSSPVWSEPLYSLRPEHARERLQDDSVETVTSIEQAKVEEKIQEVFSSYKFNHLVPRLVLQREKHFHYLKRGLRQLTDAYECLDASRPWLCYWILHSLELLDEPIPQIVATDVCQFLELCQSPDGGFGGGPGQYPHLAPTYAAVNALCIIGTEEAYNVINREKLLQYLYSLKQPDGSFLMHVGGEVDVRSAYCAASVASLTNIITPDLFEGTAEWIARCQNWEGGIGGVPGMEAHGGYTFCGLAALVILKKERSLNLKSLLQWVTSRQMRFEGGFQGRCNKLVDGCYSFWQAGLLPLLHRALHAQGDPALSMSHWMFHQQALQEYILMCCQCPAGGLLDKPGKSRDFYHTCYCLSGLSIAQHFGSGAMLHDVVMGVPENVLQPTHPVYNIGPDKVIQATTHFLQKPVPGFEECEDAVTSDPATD
Experimental: 1. In vitro enzyme assays: FPT IC50 (inhibition of farnesyl protein transferase, in vitro enzyme assay) are determined by the methods disclosed in […] or WO 95/10516.

Row | Structure (SMILES) | IC50
1 | CC(c1ccccc1)N1CCN(C(=O)NC2CCCCC2)[C@@H](C(=O)NCCc2cncn2Cc2ccc(C#N)cc2)C1 (stereo partly drawn) [Example 1, N2-[2-[1-[(4-cyanophenyl)methyl]-1H-imidazol-5-yl]ethyl]-N1-cyclohexyl-4-(1-phenylethyl)-1,2(R)-piperazinedicarboxamide] | 180 to 21000 pM
2 | N#Cc1ccc(Cn2cncc2CCNC(=O)[C@H]2CN(Cc3ccncc3)CCN2C(=O)NC2CCCCC2)cc1 [Example 5] | 180 to 21000 pM
3 | N#Cc1ccc(Cn2cncc2CCNC(=O)[C@H]2CN(CC3CC4C=CC3C4)CCN2C(=O)NC2CCCCC2)cc1 (stereo partly shown) [Example 6] | 180 to 21000 pM
4 | CC(=O)Nc1ccc(CN2CCN(C(=O)NC3CCCCC3)[C@@H](C(=O)NCCc3cncn3Cc3ccc(C#N)cc3)C2)cc1 [Example 20] | 180 to 1500 pM
5 | N#Cc1ccc(Cn2cncc2CCNC(=O)[C@H]2CN(Cc3cccc(Cl)c3)CCN2C(=O)NC2CCCCC2)cc1 [Example 25] | 180 to 1500 pM
6 | COc1cccc(CN2CCN(C(=O)NC3CCCCC3)[C@@H](C(=O)NCCc3cncn3Cc3ccc(C#N)cc3)C2)c1 [Example 26] | 180 to 1500 pM
7 | COc1ccccc1CN1CCN(C(=O)NC2CCCCC2)[C@@H](C(=O)NCCc2cncn2Cc2ccc(C#N)cc2)C1 [Example 27] | 180 to 1500 pM
8 | CCCC(=O)N1CCN(Cc2ccccc2)CC1C(=O)NCCc1cncn1Cc1ccc(C#N)cc1 (stereo not shown) [Example 28F] | 180 to 21000 pM
9 | N#Cc1ccc(Cn2cncc2CCNC(=O)C2CN(Cc3ccccc3)CCN2C(=O)c2ccccc2)cc1 (stereo not shown) [Example 28G] | 180 to 21000 pM
10 | N#Cc1ccc(Cn2cncc2CCNC(=O)C2CN(Cc3ccccc3)CCN2C(=O)Cc2ccccc2)cc1 (stereo not shown) [Example 28I] | 180 to 21000 pM
11 | N#Cc1ccc(Cn2cncc2CCNC(=O)C2CN(Cc3ccccc3)CCN2S(=O)(=O)Cc2ccccc2)cc1 (stereo not shown) [Example 28M] | 180 to 21000 pM
12 | CC(C)(C)NC(=O)N1CCN(Cc2ccccc2)CC1C(=O)NCCc1cncn1Cc1ccc(C#N)cc1 (stereo not shown) [Example 28O] | 180 to 21000 pM and 180 to 1500 pM
13 | N#Cc1ccc(Cn2cncc2CCNC(=O)C2CN(Cc3ccccc3)CCN2C(=O)CC2CCN(C(N)=O)CC2)cc1 (stereo not shown) [Example 28Q] | 180 to 21000 pM
14 | O=C(C1CN(Cc2ccccc2)CCN1C(=O)NC1CCCCC1)N(CCCn1ccnc1)Cc1ccccc1 (stereo not shown) [Example 28S] | 180 to 21000 pM
15 | CC(C)(C)NC(=O)N1CCN(Cc2ccccc2)CC1C(=O)N(CCCn1ccnc1)Cc1ccccc1 (stereo not shown) [Example 28T] | 180 to 21000 pM
16 | N#Cc1ccc(Cn2cncc2CCNC(=O)[C@H]2CN(Cc3ccccc3Cl)CCN2C(=O)NC2CCCCC2)cc1 [Example 28] | 180 to 1500 pM

Reference: patent EP1140909B1, “NOVEL INHIBITORS OF FARNESYL-PROTEIN TRANSFERASE” (Schering Corporation, priority 1998, dated 2000)
